Test results taken from patent publication US20220281848A1, “PYRAZOLE-SUBSTITUTED PYRROLIDINONES AS HERBICIDES” (FMC Corporation, priority 2019, published 2022).

How the values were obtained:
Assay type in all cases: in vivo
Details in all cases: after 13 d
corn (Zea mays, ZEAMX) [1] = test: Test A pre-emergence, corn
Protocol: (§1) Seeds of corn (Zea mays, ZEAMX), giant foxtail (Setaria faberi, SETFA), barnyardgrass (Echinochloa crus-galli, ECHCG), ivy-leaved morning glory (Ipomoea hederacea, IPOHE), redroot pigweed (Amaranthus retroflexus, AMARE) and velvetleaf (Abutilon theophrasti, ABUTH) were sown in standard soil in pots. After cultivation for one day under controlled conditions in a glasshouse (at 24/16° C., day/night; 14 h light; 65% humidity), the plants were sprayed with an aqueous spray solution derived from the formulation of the technical active ingredient in acetone/water (50:50) solution containing 0.5% Tween 20 (polyoxyethylene sorbitan monolaurate, CAS RN 9005-64-5) to give a final dose of 15.625, 62.5 or 250 g/ha of test compound.
(§2) The test plants were then grown under controlled conditions in a glasshouse (at 24/16° C., day/night; 14 h light; 65% humidity) and watered twice daily. After 13 d the test was evaluated (100=total damage to plant; 0=no damage to plant).

[2] = tested on: giant foxtail (Setaria faberi, SETFA); test: Test A pre-emergence, giant foxtail
Protocol: as §1, §2

[3] = tested on: barnyardgrass (Echinochloa crus-galli, ECHCG); test: Test A pre-emergence, barnyardgrass
Protocol: as §1, §2

[4] = tested on: ivy-leaved morning glory (Ipomoea hederacea, IPOHE); test: Test A pre-emergence, ivy-leaved morning glory
Protocol: as §1, §2

[5] = tested on: redroot pigweed (Amaranthus retroflexus, AMARE); test: Test A pre-emergence, redroot pigweed
Protocol: as §1, §2

[6] = tested on: velvetleaf (Abutilon theophrasti, ABUTH); test: Test A pre-emergence, velvetleaf
Protocol: as §1, §2

corn (Zea mays, ZEAMX) [7] = test: Test A post-emergence, corn
Protocol: as §1, with “IPOHE)),” for “IPOHE),”, “8 d” for “one day”
(§3) The test plants were then grown on under controlled conditions in a glasshouse (at 24/16° C., day/night; 14 h light; 65% humidity) and watered twice daily. After 13 d the test was evaluated (100=total damage to plant; 0=no damage to plant).

[8] = tested on: giant foxtail (Setaria faberi, SETFA); test: Test A post-emergence, giant foxtail
Protocol: as §1, with “IPOHE)),” for “IPOHE),”, “8 d” for “one day”
as §3

[9] = tested on: barnyardgrass (Echinochloa crus-galli, ECHCG); test: Test A post-emergence, barnyardgrass
Protocol: as §1, with “IPOHE)),” for “IPOHE),”, “8 d” for “one day”
as §3

[10] = tested on: ivy-leaved morning glory (Ipomoea hederacea, IPOHE); test: Test A post-emergence, ivy-leaved morning glory
Protocol: as §1, with “IPOHE)),” for “IPOHE),”, “8 d” for “one day”
as §3

[11] = tested on: redroot pigweed (Amaranthus retroflexus, AMARE); test: Test A post-emergence, redroot pigweed
Protocol: as §1, with “IPOHE)),” for “IPOHE),”, “8 d” for “one day”
as §3

[12] = tested on: velvetleaf (Abutilon theophrasti, ABUTH); test: Test A post-emergence, velvetleaf
Protocol: as §1, with “IPOHE)),” for “IPOHE),”, “8 d” for “one day”
as §3

## Cn1nc([C@H]2CNC(=O)[C@@H]2C(=O)Nc2cccc(F)n2)cc1C(C)(C)C [Compound 1]
Corn (Zea mays, ZEAMX) [1]; Pre-Emergence at 15.625 g/ha
  damage to plant (100=total damage; 0=no damage) ZEAMX: 0
Corn (Zea mays, ZEAMX) [1]; Pre-Emergence at 62.5 g/ha
  damage to plant (100=total damage; 0=no damage) ZEAMX: 0
[2]; Pre-Emergence at 15.625 g/ha
  damage to plant (100=total damage; 0=no damage) SETFA: 0
[2]; Pre-Emergence at 62.5 g/ha
  damage to plant (100=total damage; 0=no damage) SETFA: 0
[3]; Pre-Emergence at 15.625 g/ha
  damage to plant (100=total damage; 0=no damage) ECHCG: 0
[3]; Pre-Emergence at 62.5 g/ha
  damage to plant (100=total damage; 0=no damage) ECHCG: 0
[4]; Pre-Emergence at 15.625 g/ha
  damage to plant (100=total damage; 0=no damage) IPOHE: 0
[4]; Pre-Emergence at 62.5 g/ha
  damage to plant (100=total damage; 0=no damage) IPOHE: 0
[5]; Pre-Emergence at 15.625 g/ha
  damage to plant (100=total damage; 0=no damage) AMARE: 0
[5]; Pre-Emergence at 62.5 g/ha
  damage to plant (100=total damage; 0=no damage) AMARE: 0
[6]; Pre-Emergence at 15.625 g/ha
  damage to plant (100=total damage; 0=no damage) ABUTH: 0
[6]; Pre-Emergence at 62.5 g/ha
  damage to plant (100=total damage; 0=no damage) ABUTH: 0
Corn (Zea mays, ZEAMX) [7]; Post-Emergence at 15.625 g/ha
  damage to plant (100=total damage; 0=no damage) ZEAMX: 0
Corn (Zea mays, ZEAMX) [7]; Post-Emergence at 62.5 g/ha
  damage to plant (100=total damage; 0=no damage) ZEAMX: 0
[8]; Post-Emergence at 15.625 g/ha
  damage to plant (100=total damage; 0=no damage) SETFA: 0
[8]; Post-Emergence at 62.5 g/ha
  damage to plant (100=total damage; 0=no damage) SETFA: 0
[9]; Post-Emergence at 15.625 g/ha
  damage to plant (100=total damage; 0=no damage) ECHCG: 0
[9]; Post-Emergence at 62.5 g/ha
  damage to plant (100=total damage; 0=no damage) ECHCG: 0
[10]; Post-Emergence at 15.625 g/ha
  damage to plant (100=total damage; 0=no damage) IPOHE: 0
[10]; Post-Emergence at 62.5 g/ha
  damage to plant (100=total damage; 0=no damage) IPOHE: 0
[11]; Post-Emergence at 15.625 g/ha
  damage to plant (100=total damage; 0=no damage) AMARE: 0
[11]; Post-Emergence at 62.5 g/ha
  damage to plant (100=total damage; 0=no damage) AMARE: 0
[12]; Post-Emergence at 15.625 g/ha
  damage to plant (100=total damage; 0=no damage) ABUTH: 0
[12]; Post-Emergence at 62.5 g/ha
  damage to plant (100=total damage; 0=no damage) ABUTH: 0

## CCn1nc([C@H]2CN(C)C(=O)[C@@H]2C(=O)Nc2ccc(F)nc2F)c2cccc(F)c21 [Compound 11]
Corn (Zea mays, ZEAMX) [1]; Pre-Emergence at 15.625 g/ha
  damage to plant (100=total damage; 0=no damage) ZEAMX: 0
Corn (Zea mays, ZEAMX) [1]; Pre-Emergence at 62.5 g/ha
  damage to plant (100=total damage; 0=no damage) ZEAMX: 0
Corn (Zea mays, ZEAMX) [1]; Pre-Emergence at 250 g/ha
  damage to plant (100=total damage; 0=no damage) ZEAMX: 20
[2]; Pre-Emergence at 15.625 g/ha
  damage to plant (100=total damage; 0=no damage) SETFA: 80
[2]; Pre-Emergence at 62.5 g/ha
  damage to plant (100=total damage; 0=no damage) SETFA: 90
[2]; Pre-Emergence at 250 g/ha
  damage to plant (100=total damage; 0=no damage) SETFA: 90
[3]; Pre-Emergence at 15.625 g/ha
  damage to plant (100=total damage; 0=no damage) ECHCG: 20
[3]; Pre-Emergence at 62.5 g/ha
  damage to plant (100=total damage; 0=no damage) ECHCG: 90
[3]; Pre-Emergence at 250 g/ha
  damage to plant (100=total damage; 0=no damage) ECHCG: 90
[4]; Pre-Emergence at 15.625 g/ha
  damage to plant (100=total damage; 0=no damage) IPOHE: 0
[4]; Pre-Emergence at 62.5 g/ha
  damage to plant (100=total damage; 0=no damage) IPOHE: 0
[4]; Pre-Emergence at 250 g/ha
  damage to plant (100=total damage; 0=no damage) IPOHE: 10
[5]; Pre-Emergence at 15.625 g/ha
  damage to plant (100=total damage; 0=no damage) AMARE: 0
[5]; Pre-Emergence at 62.5 g/ha
  damage to plant (100=total damage; 0=no damage) AMARE: 0
[5]; Pre-Emergence at 250 g/ha
  damage to plant (100=total damage; 0=no damage) AMARE: 0
[6]; Pre-Emergence at 15.625 g/ha
  damage to plant (100=total damage; 0=no damage) ABUTH: 0
[6]; Pre-Emergence at 62.5 g/ha
  damage to plant (100=total damage; 0=no damage) ABUTH: 0
[6]; Pre-Emergence at 250 g/ha
  damage to plant (100=total damage; 0=no damage) ABUTH: 0
Corn (Zea mays, ZEAMX) [7]; Post-Emergence at 15.625 g/ha
  damage to plant (100=total damage; 0=no damage) ZEAMX: 10
Corn (Zea mays, ZEAMX) [7]; Post-Emergence at 62.5 g/ha
  damage to plant (100=total damage; 0=no damage) ZEAMX: 10
Corn (Zea mays, ZEAMX) [7]; Post-Emergence at 250 g/ha
  damage to plant (100=total damage; 0=no damage) ZEAMX: 40
[8]; Post-Emergence at 15.625 g/ha
  damage to plant (100=total damage; 0=no damage) SETFA: 60
[8]; Post-Emergence at 62.5 g/ha
  damage to plant (100=total damage; 0=no damage) SETFA: 80
[8]; Post-Emergence at 250 g/ha
  damage to plant (100=total damage; 0=no damage) SETFA: 80
[9]; Post-Emergence at 15.625 g/ha
  damage to plant (100=total damage; 0=no damage) ECHCG: 50
[9]; Post-Emergence at 62.5 g/ha
  damage to plant (100=total damage; 0=no damage) ECHCG: 90
[9]; Post-Emergence at 250 g/ha
  damage to plant (100=total damage; 0=no damage) ECHCG: 90
[10]; Post-Emergence at 15.625 g/ha
  damage to plant (100=total damage; 0=no damage) IPOHE: 0
[10]; Post-Emergence at 62.5 g/ha
  damage to plant (100=total damage; 0=no damage) IPOHE: 0
[10]; Post-Emergence at 250 g/ha
  damage to plant (100=total damage; 0=no damage) IPOHE: 0
[11]; Post-Emergence at 15.625 g/ha
  damage to plant (100=total damage; 0=no damage) AMARE: 0
[11]; Post-Emergence at 62.5 g/ha
  damage to plant (100=total damage; 0=no damage) AMARE: 0
[11]; Post-Emergence at 250 g/ha
  damage to plant (100=total damage; 0=no damage) AMARE: 0
[12]; Post-Emergence at 15.625 g/ha
  damage to plant (100=total damage; 0=no damage) ABUTH: 0
[12]; Post-Emergence at 62.5 g/ha
  damage to plant (100=total damage; 0=no damage) ABUTH: 0
[12]; Post-Emergence at 250 g/ha
  damage to plant (100=total damage; 0=no damage) ABUTH: 0
